Test results from patent publication US9936701B2, “Herbicidal compounds” (Syngenta Participations AG, priority 2013, dated 2018).

test system: a variety of test species; experiment: Pre-emergence herbicidal activity (glasshouse, sprayed one day after sowing, evaluated after 13 days); assay type: in vivo; set-up: key: 5=total damage to plant; 0=no damage to plant; conditions: ABUTH, application pre-emergence, rate 1000 g/Ha, scale 0-5
Outline: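 Seeds sown in standard soil in pots, held one day in glasshouse (24/16 °C day/night, 14 h light, 65% humidity), then sprayed with aqueous solution of compound formulated in acetone/water 50:50 with 0.5% Tween 20. Grown on under same conditions, watered twice daily; damage scored after 13 days (0 = none, 5 = total).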

| SMILES | Pre-emergence herbicidal damage score, ABUTH |
| --- | --- |
| CC(C)=CCCc1cc(N2C(=O)C(Cl)=C(C)C2O)no1 (centres unmarked) [A35] | 1 |
| CCOC(C)(C)CCCc1cc(N2C(=O)C(Cl)=C(C)C2O)no1 (centres unmarked) [A36] | 5 |
| CCCC(C)(C)c1cc(N2C(=O)C(Cl)=C(C)C2O)no1 (centres unmarked) [A37] | 5 |
| CCCCC(C)(C)c1cc(N2C(=O)C(Cl)=C(C)C2O)no1 (centres unmarked) [A38] | 1 |
| CC1=C(Cl)C(=O)N(c2cc(C(C)(C)CO)on2)C1O (centres unmarked) [A39] | 1 |

same assay, conditions: ALOMY, application pre-emergence, rate 1000 g/Ha, scale 0-5

| SMILES | Pre-emergence herbicidal damage score, ALOMY |
| --- | --- |
| CC(C)=CCCc1cc(N2C(=O)C(Cl)=C(C)C2O)no1 (centres unmarked) [A35] | 1 |
| CCOC(C)(C)CCCc1cc(N2C(=O)C(Cl)=C(C)C2O)no1 (centres unmarked) [A36] | 3 |
| CCCC(C)(C)c1cc(N2C(=O)C(Cl)=C(C)C2O)no1 (centres unmarked) [A37] | 4 |
| CCCCC(C)(C)c1cc(N2C(=O)C(Cl)=C(C)C2O)no1 (centres unmarked) [A38] | 3 |
| CC1=C(Cl)C(=O)N(c2cc(C(C)(C)CO)on2)C1O (centres unmarked) [A39] | 1 |

same assay, conditions: AMARE, application pre-emergence, rate 1000 g/Ha, scale 0-5

| SMILES | Pre-emergence herbicidal damage score, AMARE |
| --- | --- |
| CC(C)=CCCc1cc(N2C(=O)C(Cl)=C(C)C2O)no1 (centres unmarked) [A35] | 3 |
| CCOC(C)(C)CCCc1cc(N2C(=O)C(Cl)=C(C)C2O)no1 (centres unmarked) [A36] | 5 |
| CCCC(C)(C)c1cc(N2C(=O)C(Cl)=C(C)C2O)no1 (centres unmarked) [A37] | 5 |
| CCCCC(C)(C)c1cc(N2C(=O)C(Cl)=C(C)C2O)no1 (centres unmarked) [A38] | 5 |
| CC1=C(Cl)C(=O)N(c2cc(C(C)(C)CO)on2)C1O (centres unmarked) [A39] | 4 |

same assay, conditions: ECHCG, application pre-emergence, rate 1000 g/Ha, scale 0-5

| SMILES | Pre-emergence herbicidal damage score, ECHCG |
| --- | --- |
| CC(C)=CCCc1cc(N2C(=O)C(Cl)=C(C)C2O)no1 (centres unmarked) [A35] | 0 |
| CCOC(C)(C)CCCc1cc(N2C(=O)C(Cl)=C(C)C2O)no1 (centres unmarked) [A36] | 4 |
| CCCC(C)(C)c1cc(N2C(=O)C(Cl)=C(C)C2O)no1 (centres unmarked) [A37] | 5 |
| CCCCC(C)(C)c1cc(N2C(=O)C(Cl)=C(C)C2O)no1 (centres unmarked) [A38] | 5 |
| CC1=C(Cl)C(=O)N(c2cc(C(C)(C)CO)on2)C1O (centres unmarked) [A39] | 3 |

same assay, conditions: SETFA, application pre-emergence, rate 1000 g/Ha, scale 0-5

| SMILES | Pre-emergence herbicidal damage score, SETFA |
| --- | --- |
| CC(C)=CCCc1cc(N2C(=O)C(Cl)=C(C)C2O)no1 (centres unmarked) [A35] | 0 |
| CCOC(C)(C)CCCc1cc(N2C(=O)C(Cl)=C(C)C2O)no1 (centres unmarked) [A36] | 1 |
| CCCC(C)(C)c1cc(N2C(=O)C(Cl)=C(C)C2O)no1 (centres unmarked) [A37] | 4 |
| CCCCC(C)(C)c1cc(N2C(=O)C(Cl)=C(C)C2O)no1 (centres unmarked) [A38] | 2 |
| CC1=C(Cl)C(=O)N(c2cc(C(C)(C)CO)on2)C1O (centres unmarked) [A39] | 0 |

same assay, conditions: ZEAMX, application pre-emergence, rate 1000 g/Ha, scale 0-5

| SMILES | Pre-emergence herbicidal damage score, ZEAMX |
| --- | --- |
| CC(C)=CCCc1cc(N2C(=O)C(Cl)=C(C)C2O)no1 (centres unmarked) [A35] | 0 |
| CCOC(C)(C)CCCc1cc(N2C(=O)C(Cl)=C(C)C2O)no1 (centres unmarked) [A36] | 1 |
| CCCC(C)(C)c1cc(N2C(=O)C(Cl)=C(C)C2O)no1 (centres unmarked) [A37] | 1 |
| CCCCC(C)(C)c1cc(N2C(=O)C(Cl)=C(C)C2O)no1 (centres unmarked) [A38] | 1 |
| CC1=C(Cl)C(=O)N(c2cc(C(C)(C)CO)on2)C1O (centres unmarked) [A39] | 1 |

test system: a variety of test species; experiment: Post-emergence herbicidal activity (glasshouse, sprayed after 8 days cultivation, evaluated after 13 days); assay type: in vivo; set-up: key: 5=total damage to plant; 0=no damage to plant; conditions: Abutilon theophrasti, rate 1000 g/Ha, scale 0-5
Outline: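 Foliar application to 8-day-old plants using a 0.5% Tween 20 acetone/water carrier; phytotoxicity is scored visually from 0 to 5 after 13 days of growth at 24/16 °C day/night.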

| SMILES | ABUTH (Abutilon theophrasti) damage score, application post-emergence |
| --- | --- |
| CC(C)=CCCc1cc(N2C(=O)C(Cl)=C(C)C2O)no1 (centres unmarked) [A35] | 4 |
| CCOC(C)(C)CCCc1cc(N2C(=O)C(Cl)=C(C)C2O)no1 (centres unmarked) [A36] | 5 |
| CCCC(C)(C)c1cc(N2C(=O)C(Cl)=C(C)C2O)no1 (centres unmarked) [A37] | 5 |
| CCCCC(C)(C)c1cc(N2C(=O)C(Cl)=C(C)C2O)no1 (centres unmarked) [A38] | 5 |
| CC1=C(Cl)C(=O)N(c2cc(C(C)(C)CO)on2)C1O (centres unmarked) [A39] | 4 |

same assay, conditions: Alopecurus myosuroides, rate 1000 g/Ha, scale 0-5

| SMILES | ALOMY (Alopecurus myosuroides) damage score, application post-emergence |
| --- | --- |
| CC(C)=CCCc1cc(N2C(=O)C(Cl)=C(C)C2O)no1 (centres unmarked) [A35] | 1 |
| CCOC(C)(C)CCCc1cc(N2C(=O)C(Cl)=C(C)C2O)no1 (centres unmarked) [A36] | 4 |
| CCCC(C)(C)c1cc(N2C(=O)C(Cl)=C(C)C2O)no1 (centres unmarked) [A37] | 5 |
| CCCCC(C)(C)c1cc(N2C(=O)C(Cl)=C(C)C2O)no1 (centres unmarked) [A38] | 5 |
| CC1=C(Cl)C(=O)N(c2cc(C(C)(C)CO)on2)C1O (centres unmarked) [A39] | 3 |

same assay, conditions: Amaranthus retroflexus, rate 1000 g/Ha, scale 0-5

| SMILES | AMARE (Amaranthus retroflexus) damage score, application post-emergence |
| --- | --- |
| CC(C)=CCCc1cc(N2C(=O)C(Cl)=C(C)C2O)no1 (centres unmarked) [A35] | 5 |
| CCOC(C)(C)CCCc1cc(N2C(=O)C(Cl)=C(C)C2O)no1 (centres unmarked) [A36] | 5 |
| CCCC(C)(C)c1cc(N2C(=O)C(Cl)=C(C)C2O)no1 (centres unmarked) [A37] | 5 |
| CCCCC(C)(C)c1cc(N2C(=O)C(Cl)=C(C)C2O)no1 (centres unmarked) [A38] | 5 |
| CC1=C(Cl)C(=O)N(c2cc(C(C)(C)CO)on2)C1O (centres unmarked) [A39] | 5 |

same assay, conditions: Echinochloa crus-galli, rate 1000 g/Ha, scale 0-5

| SMILES | ECHCG (Echinochloa crus-galli) damage score, application post-emergence |
| --- | --- |
| CC(C)=CCCc1cc(N2C(=O)C(Cl)=C(C)C2O)no1 (centres unmarked) [A35] | 2 |
| CCOC(C)(C)CCCc1cc(N2C(=O)C(Cl)=C(C)C2O)no1 (centres unmarked) [A36] | 5 |
| CCCC(C)(C)c1cc(N2C(=O)C(Cl)=C(C)C2O)no1 (centres unmarked) [A37] | 5 |
| CCCCC(C)(C)c1cc(N2C(=O)C(Cl)=C(C)C2O)no1 (centres unmarked) [A38] | 5 |
| CC1=C(Cl)C(=O)N(c2cc(C(C)(C)CO)on2)C1O (centres unmarked) [A39] | 5 |

same assay, conditions: Setaria faberi, rate 1000 g/Ha, scale 0-5

| SMILES | SETFA (Setaria faberi) damage score, application post-emergence |
| --- | --- |
| CC(C)=CCCc1cc(N2C(=O)C(Cl)=C(C)C2O)no1 (centres unmarked) [A35] | 0 |
| CCOC(C)(C)CCCc1cc(N2C(=O)C(Cl)=C(C)C2O)no1 (centres unmarked) [A36] | 2 |
| CCCC(C)(C)c1cc(N2C(=O)C(Cl)=C(C)C2O)no1 (centres unmarked) [A37] | 5 |
| CCCCC(C)(C)c1cc(N2C(=O)C(Cl)=C(C)C2O)no1 (centres unmarked) [A38] | 5 |
| CC1=C(Cl)C(=O)N(c2cc(C(C)(C)CO)on2)C1O (centres unmarked) [A39] | 1 |

same assay, conditions: Zea mays, rate 1000 g/Ha, scale 0-5

| SMILES | ZEAMX (Zea mays) damage score, application post-emergence |
| --- | --- |
| CC(C)=CCCc1cc(N2C(=O)C(Cl)=C(C)C2O)no1 (centres unmarked) [A35] | 1 |
| CCOC(C)(C)CCCc1cc(N2C(=O)C(Cl)=C(C)C2O)no1 (centres unmarked) [A36] | 1 |
| CCCC(C)(C)c1cc(N2C(=O)C(Cl)=C(C)C2O)no1 (centres unmarked) [A37] | 3 |
| CCCCC(C)(C)c1cc(N2C(=O)C(Cl)=C(C)C2O)no1 (centres unmarked) [A38] | 2 |
| CC1=C(Cl)C(=O)N(c2cc(C(C)(C)CO)on2)C1O (centres unmarked) [A39] | 1 |

test system: not given; experiment: not given; conditions: not given

| SMILES | melting point |
| --- | --- |
| CC(C)=CCCc1cc(N2C(=O)C(Cl)=C(C)C2O)no1 (centres unmarked) [A35] | 72 to 74 °C |
| CCOC(C)(C)CCCc1cc(N2C(=O)C(Cl)=C(C)C2O)no1 (centres unmarked) [A36] | 110 to 112 °C |
| CCCC(C)(C)c1cc(N2C(=O)C(Cl)=C(C)C2O)no1 (centres unmarked) [A37] | 96 to 98 °C |
| CCCCC(C)(C)c1cc(N2C(=O)C(Cl)=C(C)C2O)no1 (centres unmarked) [A38] | 75 to 77 °C |
| CC1=C(Cl)C(=O)N(c2cc(C(C)(C)CO)on2)C1O (centres unmarked) [A39] | 130 to 132 °C |
